{"source": "PubChem BioAssay AID608", "about": "(Sanford-Burnham Center for Chemical Genomics, 2007)", "note": "The source made the active and inactive calls. The rule behind the calls is not given here."}
{"target": "Peptidyl-prolyl cis-trans isomerase FKBP1A (Homo sapiens) (UniProt P62942)", "sequence (P62942 whole entry, looked up)": "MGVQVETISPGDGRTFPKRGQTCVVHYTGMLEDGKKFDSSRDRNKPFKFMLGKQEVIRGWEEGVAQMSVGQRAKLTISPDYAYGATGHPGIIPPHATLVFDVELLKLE", "assay": "FKBP12 binders, biophysical, NMR detection (AID 608)", "conditions": "NMR binding, purified FKBP12"}
{"smiles": "Cc1ccc2c(C)c(C(=O)Nc3nnc(C)s3)oc2c1", "Kd": "> 4 mM (inactive)"}
{"smiles": "CC(=O)O[C@@H]1CC[C@@]2(C)C(CC[C@]3(C)C2CC=C2C4CC(C)(C)CC[C@]4(C(=O)O)CC[C@]23C)C1(C)C", "note": "(some centres undefined)", "Kd": "> 4 mM (inactive)"}
{"smiles": "CCOc1ccc(C(=O)c2ccc(O)c(O)c2O)cc1", "Kd": "> 4 mM (inactive)"}
{"smiles": "Cc1cc2ncn(S(=O)(=O)N3CCCCC3)c2cc1C", "Kd": "> 4 mM (inactive)"}
{"smiles": "CC1(C)C2C[C@@H](O)[C@]3(C)C(CC[C@@]4(C)[C@H](c5ccoc5)OC(=O)[C@H]5O[C@]543)[C@@]2(C)[C@@H](O)C[C@H]1O", "note": "(some centres undefined)", "Kd": "> 4 mM (inactive)"}
{"smiles": "Cc1cc(-c2ccccc2)nc2cc(C(N)=O)nn12", "Kd": "> 4 mM (inactive)"}
{"smiles": "O=C(O)c1ccc2occc2c1", "Kd": "> 4 mM (inactive)"}
{"smiles": "CCOC(=O)c1csc(C2COc3ccccc3O2)n1", "note": "(centres undefined)", "Kd": "> 4 mM (inactive)"}
{"smiles": "CNc1nc(N)c(C(=O)C(C)(C)C)s1", "Kd": "> 4 mM (inactive)"}
{"smiles": "Cn1ncc(C(=O)NC2CCCCC2)c1Cl", "Kd": "> 4 mM (inactive)"}
{"smiles": "Cc1cc(C)n2c(SCc3c(C)noc3C)nnc2n1", "Kd": "> 4 mM (inactive)"}
{"smiles": "O=C(O)c1snnc1-c1ccccc1", "Kd": "> 4 mM (inactive)"}
{"smiles": "Cc1ccccc1N1CCN(C(=O)C2CCCCC2)CC1", "Kd": "> 4 mM (inactive)"}
{"smiles": "O=C1NC(=S)N/C1=C/c1ccsc1", "Kd": "> 4 mM (inactive)"}
{"smiles": "Fc1ccc(Cn2c(-c3cscn3)nc3ccccc32)c(Cl)c1", "Kd": "inactive"}
{"smiles": "CC(=O)Nc1cccc(N2CCCC2=O)c1", "Kd": "> 4 mM (inactive)"}
{"smiles": "Cc1cc(NC(=O)Cc2cccs2)no1", "Kd": "> 4 mM (inactive)"}
{"smiles": "CC(=O)c1c(O)cc(O)cc1O", "Kd": "> 4 mM (inactive)"}
{"smiles": "COC(=O)CCC(C)[C@H]1CCC2C3C(C[C@H](O)[C@@]21C)[C@@]1(C)CC[C@@H](O)C[C@H]1C[C@H]3O", "note": "(some centres undefined)", "Kd": "> 4 mM (inactive)"}
{"smiles": "COc1ccc(C2CC(=O)c3ccc(OC)cc3O2)cc1", "note": "(centres undefined)", "Kd": "> 4 mM (inactive)"}
{"smiles": "NC(C(=O)O)C(O)c1ccccc1", "note": "(centres undefined)", "Kd": "> 4 mM (inactive)"}
{"smiles": "CC(CCC(=O)O)[C@H]1CCC2C3CC[C@@H]4C[C@H](O)CC[C@]4(C)C3C[C@H](O)[C@@]21C", "note": "(some centres undefined)", "Kd": "> 4 mM (inactive)"}
{"smiles": "CC1CCN(C(=O)c2cc3ccccc3o2)CC1", "Kd": "> 4 mM (inactive)"}
{"smiles": "CN(C)c1ccc2c(=O)[nH][nH]c(=O)c2c1", "Kd": "> 4 mM (inactive)"}
{"smiles": "CC(=O)OCc1cc(=O)n(C)c(=O)n1C", "Kd": "> 4 mM (inactive)"}
{"smiles": "c1ccc(CCc2nc(-c3ccncc3)no2)cc1", "Kd": "> 4 mM (inactive)"}
{"smiles": "NC(=O)c1cc2c(n(-c3ccccc3)c1=O)CCCC2=O", "Kd": "> 4 mM (inactive)"}
{"smiles": "COC(=O)N(c1ccccc1)P1(=S)OCCO1", "Kd": "> 4 mM (inactive)"}
{"smiles": "O=C1Nc2ccc(S(=O)(=O)NCCO)c3cccc1c23", "Kd": "> 4 mM (inactive)"}
{"smiles": "Cn1nc(C(=O)NCc2cccnc2)c2ccccc2c1=O", "Kd": "> 4 mM (inactive)"}
{"smiles": "CC1=C(/C=C/C(C)=C/C=C/C(C)=C/C=C/C=C(C)/C=C/C=C(C)/C=C/C2=C(C)CCCC2(C)C)C(C)(C)CCC1", "Kd": "> 4 mM (inactive)"}
{"smiles": "Cn1nnc2cc(CO)ccc21", "Kd": "> 4 mM (inactive)"}
{"smiles": "NN1C(=O)CSC1=Nc1ccccc1", "Kd": "> 4 mM (inactive)"}
{"smiles": "COC(=O)c1cccc(C(F)(F)F)c1", "Kd": "> 4 mM (inactive)"}
{"smiles": "OCc1ccccc1O[C@@H]1O[C@H](CO)[C@@H](O)[C@H](O)[C@H]1O", "Kd": "> 4 mM (inactive)"}
{"smiles": "COCC(=O)NC1CC(C)(C)NC(C)(C)C1", "Kd": "> 4 mM (inactive)"}
{"smiles": "O=C(O)CC[N+](=O)[O-]", "Kd": "> 4 mM (inactive)"}
{"smiles": "CCCn1cnc2sc(C(N)=O)c(C)c2c1=O", "Kd": "> 4 mM (inactive)"}
{"smiles": "COc1ccc2c(Cl)c(C(=O)N3CC(C)OC(C)C3)sc2c1", "note": "(centres undefined)", "Kd": "> 13.6 mM (inactive)"}
{"smiles": "O=C(Nc1nc2c(s1)CCCC2)c1cccnc1", "Kd": "> 4 mM (inactive)"}
{"smiles": "CC1=[N+]([O-])C2(N)CCc3c(no[n+]3[O-])C2(O)C1", "note": "(centres undefined)", "Kd": "> 4 mM (inactive)"}
{"smiles": "O=C(O)c1ccc(-n2cccc2)cc1", "Kd": "> 4 mM (inactive)"}
{"smiles": "CC12CCC3C(CC3(C)C)C(C)(CCC1=O)O2", "note": "(centres undefined)", "Kd": "> 4 mM (inactive)"}
{"smiles": "Cn1cccc1C(=O)NS(=O)(=O)c1ccccc1Cl", "Kd": "> 4 mM (inactive)"}
{"smiles": "COc1ccc2cnn(-c3ccccc3)c(=O)c2c1OC", "Kd": "> 4 mM (inactive)"}
{"smiles": "O=C(Cn1cnc2ccccc2c1=O)N1CCOCC1", "Kd": "> 4 mM (inactive)"}
{"smiles": "O=C(c1ccccc1)N1CCOCC1", "Kd": "> 4 mM (inactive)"}
{"smiles": "Nc1ccc(NS(=O)(=O)c2ccc(N)cc2)cc1", "Kd": "> 4 mM (inactive)"}
{"smiles": "NCc1csc(-c2cccs2)n1", "Kd": "> 4 mM (inactive)"}
{"smiles": "Cc1nc(-c2ccccc2)sc1CN", "Kd": "> 4 mM (inactive)"}
{"smiles": "CSCCNC(C)=O", "Kd": "> 4 mM (inactive)"}
{"smiles": "CC(C)=NNC(=O)C(=O)Nc1ccc(F)cc1", "Kd": "> 4 mM (inactive)"}
{"smiles": "Cc1ccc2cc(C(=O)O)ccc2n1", "Kd": "> 4 mM (inactive)"}
{"smiles": "Cc1ccc2nc(NC(=O)CN3CCOCC3)sc2c1", "Kd": "> 4 mM (inactive)"}
{"smiles": "COC(=O)[C@@H]1OC(=O)C2OC23[C@@]1(C)CCC1[C@]2(C)C(C[C@@H](O)[C@]13C)C(C)(C)[C@H](OC(C)=O)C[C@@H]2OC(C)=O", "note": "(some centres undefined)", "Kd": "> 4 mM (inactive)"}
{"smiles": "Cc1noc(C)c1C(=O)N1CCC2(CC1)OCCO2", "Kd": "> 4 mM (inactive)"}
{"smiles": "O=C(Nc1ccncc1)c1cncc(Br)c1", "Kd": "> 4 mM (inactive)"}
{"smiles": "C=C(C)C1CC=C(CO)CC1", "note": "(centres undefined)", "Kd": "> 4 mM (inactive)"}
{"smiles": "Cc1nc2cc(NC(=O)Nc3nccs3)ccc2n1C", "Kd": "> 4 mM (inactive)"}
{"smiles": "COc1cc(C)c(S(=O)(=O)N2CCN(C)CC2)cc1C", "Kd": "> 4 mM (inactive)"}
{"smiles": "C=CCc1ccc(O)c(OC)c1", "Kd": "> 4 mM (inactive)"}
{"smiles": "Cc1cccc(NC(=O)c2ccc(=O)[nH]n2)c1", "Kd": "> 4 mM (inactive)"}
{"smiles": "NC(=O)c1cc(N)cc(C(N)=O)c1", "Kd": "> 4 mM (inactive)"}
{"smiles": "O=C(CSc1ccnc(=O)[nH]1)NCc1ccccc1", "Kd": "> 4 mM (inactive)"}
{"smiles": "COc1ccc2c(c1)OCC(Cc1ccc(OC)c(O)c1)C2=O", "note": "(centres undefined)", "Kd": "> 4 mM (inactive)"}
{"smiles": "CC(C)(C)c1cc(N)n[nH]1", "Kd": "> 4 mM (inactive)"}
{"smiles": "Cc1nnsc1C(=O)O", "Kd": "> 4 mM (inactive)"}
{"smiles": "CC(C)[C@@H]1CC[C@@H](C)CC1=O", "Kd": "> 4 mM (inactive)"}
{"smiles": "COc1ccc2cc3[n+](cc2c1OC)CCc1cc2c(cc1-3)OCO2", "Kd": "> 4 mM (inactive)"}
{"smiles": "Cc1noc(C)c1C(=O)N1CCC(Cc2ccccc2)CC1", "Kd": "> 4 mM (inactive)"}
{"smiles": "Clc1ccc2c(N3CCNCC3)ccnc2c1", "Kd": "> 4 mM (inactive)"}
{"smiles": "CN(C)c1ccc(/C=C2/NC(=S)NC2=O)cc1", "Kd": "> 4 mM (inactive)"}
{"smiles": "Cc1[nH]c2ccccc2c1C=Nn1cncn1", "Kd": "> 4 mM (inactive)"}
{"smiles": "Cn1c(=O)c2cn3ncccc3c2n(C)c1=O", "Kd": "> 4 mM (inactive)"}
{"smiles": "O=C(O)c1cccc2c1OCCO2", "Kd": "> 4 mM (inactive)"}
{"smiles": "CC(C)CNc1cc(=O)n(C)c(=O)n1C", "Kd": "> 4 mM (inactive)"}
{"smiles": "O=C(Cc1cccs1)Nc1nncs1", "Kd": "> 4 mM (inactive)"}
{"smiles": "CC(=O)O[C@@H]1CC2C(C)(C)C(=O)C3OC3[C@]2(C)C2CC[C@@]3(C)[C@H](c4ccoc4)OC(=O)C4OC43[C@@]21C", "note": "(some centres undefined)", "Kd": "> 4 mM (inactive)"}
{"smiles": "CSc1nc(C)cc(-n2ccc(=O)[nH]c2=O)n1", "Kd": "> 4 mM (inactive)"}
{"smiles": "COc1ccc(O)c(-c2cn[nH]c2-c2cccs2)c1", "Kd": "> 4 mM (inactive)"}
{"smiles": "Cc1c(/C=N\\n2cnnc2)c2ccccc2n1C", "Kd": "> 4 mM (inactive)"}
{"smiles": "NC1=NC(=O)C(Cc2cccc([N+](=O)[O-])c2)S1", "note": "(centres undefined)", "Kd": "> 4 mM (inactive)"}
{"smiles": "COC(=O)C1CSCC1=O", "note": "(centres undefined)", "Kd": "> 4 mM (inactive)"}
{"smiles": "C#CCCCCCCCCCCCC(=O)CC(O)COC(C)=O", "note": "(centres undefined)", "Kd": "> 4 mM (inactive)"}
